Data as given in patent US12012417B2, “N-substituted tetrahydrothienopyridine derivatives and uses thereof” (NOVARTIS AG, priority 2018, dated 2024).
Structures can show the parent of a compound that is named as a salt.

Experiments:
[1] = test system: Dengue 3 virus MY05-34640-WT-C6/36; experiment: High-content imaging cell-based flavivirus immunodetection (HCl-CFI) assay, Dengue 3; conditions: Dengue virus, A549, 48 h, read-out: Dengue 3 virus MY05-34640-WT-C6/36 in A549 using HCl [Inhibitor/IC50] Qualified AC50
[2] = test system: Dengue 1 virus MY97-10245; experiment: High-content imaging cell-based flavivirus immunodetection (HCl-CFI) assay, Dengue 1; conditions: Dengue virus, A549, 48 h, read-out: Dengue 1 virus MY97-10245 in A549 using HCl [Inhibitor/IC50] Qualified AC50
[3] = test system: Dengue 4 virus MY01-22713; experiment: High-content imaging cell-based flavivirus immunodetection (HCl-CFI) assay, Dengue 4; conditions: Dengue virus, A549, 48 h, read-out: Dengue 4 virus MY01-22713 in A549 using HCl [Inhibitor/IC50] Qualified AC50, A549 cells, 48 h, viral E protein expression
[4] = test system: Dengue 2 virus MY97-10340; experiment: High-content imaging cell-based flavivirus immunodetection (HCl-CFI) assay, Dengue 2; conditions: Dengue virus, A549, 48 h, read-out: Dengue 2 virus MY97-10340 in A549 using HCl [Inhibitor/IC50] Qualified AC50, A549 cells, MOI 0.3, 48 h, viral E protein expression
Protocol: High-Content Imaging Cell-Based Flavivirus Immunodetection (HCl-CFI) Assay
A549 cells (7×10^3 cells per well) in a 384-well plate were infected with the DENV-2 (MY97-10340) strain at an MOI of 0.3. The cells were then treated with 3-fold, 10-point serial dilutions of test compound. After 48 h, the cells were fixed with paraformadehyde, and the viral E protein detected with 4G2 antibody labeled with Dylight™ 488 (GenScript). Cell nuclei were stained with Draq5 (Pierce/Thermo), and images were taken on the Opera imaging system (Perkin Elmer). A dose-response curve was plotted to calculate the effective concentration of compound needed to reduce expression of E protein by 50% (EC50) using GraphPad Prism.
The resulted EC50 values are summarized in Table 1 below: ±≥1 μM; 1 μM>++≥0.1 μM; 0.1 μm>+++

Compound | EC50 [1] [nM] | EC50 [2] [nM] | EC50 [3] [nM] | EC50 [4] [nM]
COc1cc(CC(=O)Nc2sc3c(c2C#N)CN(Cc2cccc(F)c2)CC3)ccc1S(N)(=O)=O [Example 22, N-(3-cyano-5-(3-fluorobenzyl)-4,5,6,7-tetrahydrothieno[3,2-c]pyridin-2-yl)-2-(3-methoxy-4-sulfamoylphenyl)acetamide] | < 100 | 100 to 1000 | < 100 | < 100
COCCOc1cccc(CC(=O)Nc2sc3c(c2C#N)CN(CC2CCCCC2)CC3)c1 [Example 15, N-(3-cyano-5-(cyclohexylmethyl)-4,5,6,7-tetrahydrothieno[3,2-c]pyridin-2-yl)-2-(3-(2-methoxyethoxy)phenyl)acetamide] | 100 to 1000 | 100 to 1000 | 100 to 1000 | 100 to 1000
COc1cc(CC(=O)Nc2sc3c(c2C#N)CN(CC2CCCCC2)CC3)ccc1S(C)(=O)=O [Example 10, N-(3-cyano-5-(cyclohexylmethyl)-4,5,6,7-tetrahydrothieno[3,2-c]pyridin-2-yl)-2-(3-methoxy-4-(methylsulfonyl)phenyl)acetamide] | < 100 | 100 to 1000 | < 100 | < 100
N#Cc1c(NC(=O)Cc2ccc(S(N)(=O)=O)c(F)c2)sc2c1CN(CC1CCCCC1)CC2 [Example 9, N-(3-cyano-5-(cyclohexylmethyl)-4,5,6,7-tetrahydrothieno[3,2-c]pyridin-2-yl)-2-(3-fluoro-4-sulfamoylphenyl)acetamide] | < 100 | 100 to 1000 | < 100 | < 100
N#Cc1c(NC(=O)Cc2ccc(S(N)(=O)=O)cc2)sc2c1CN(Cc1cccc(F)c1)CC2 [Example 5, N-(3-cyano-5-(3-fluorobenzyl)-4,5,6,7-tetrahydrothieno[3,2-c]pyridin-2-yl)-2-(4-sulfamoylphenyl)acetamide] | < 100 | 100 to 1000 | < 100 | < 100
CC1Cc2sc(NC(=O)Cc3ccc(S(=O)(=O)NCC4CC(F)(F)C4)cc3)c(C#N)c2CN1CC1CC(F)(F)C1 (stereo not shown) [Example 57, N-(3-cyano-5-((3,3-difluorocyclobutyl)methyl)-6-methyl-4,5,6,7-tetrahydrothieno[3,2-c]pyridin-2-yl)-2-(4-(N-((3,3-difluorocyclobutyl)methyl)sulfamoyl)phenyl)acetamide] | > 1000 | > 1000 | 100 to 1000 | 100 to 1000
CS(=O)(=O)c1ccc(CC(=O)Nc2sc3c(c2C#N)CCN(Cc2cccc(F)c2)C3)cc1 [Example 119, N-(3-cyano-6-(3-fluorobenzyl)-4,5,6,7-tetrahydrothieno[2,3-c]pyridin-2-yl)-2-(4-(methylsulfonyl)phenyl)acetamide] | < 100 | > 1000 | < 100 | 100 to 1000
N#Cc1c(NC(=O)Cc2ccc(S(N)(=O)=O)cc2)sc2c1CCN(Cc1c(F)cccc1Cl)C2 [Example 111, N-(6-(2-chloro-6-fluorobenzyl)-3-cyano-4,5,6,7-tetrahydrothieno[2,3-c]pyridin-2-yl)-2-(4-sulfamoylphenyl)acetamide] | < 100 | 100 to 1000 | < 100 | < 100
CC1(C)CS(=O)(=O)c2ccc(CC(=O)Nc3sc4c(c3C#N)CN(Cc3cccc(F)c3)CC4)cc21 [Example 42, N-(3-cyano-5-(3-fluorobenzyl)-4,5,6,7-tetrahydrothieno[3,2-c]pyridin-2-yl)-2-(3,3-dimethyl-1,1-dioxido-2,3-dihydrobenzo[b]thiophen-5-yl)acetamide] | < 100 | 100 to 1000 | < 100 | < 100
CN(C)S(=O)(=O)c1ccc(CC(=O)Nc2sc3c(c2C#N)CN(Cc2cccc(F)c2)CC3)cc1 [Example 47, N-(3-cyano-5-(3-fluorobenzyl)-4,5,6,7-tetrahydrothieno[3,2-c]pyridin-2-yl)-2-(4-(N,N-dimethylsulfamoyl)phenyl)acetamide] | < 100 | 100 to 1000 | 100 to 1000 | < 100
CS(=O)(=O)n1ccc(CC(=O)Nc2sc3c(c2C#N)CN(Cc2cccc(F)c2)CC3)c1 [Example 36, N-(3-cyano-5-(3-fluorobenzyl)-4,5,6,7-tetrahydrothieno[3,2-c]pyridin-2-yl)-2-(1-(methylsulfonyl)-1H-pyrrol-3-yl)acetamide] | 100 to 1000 | > 1000 | 100 to 1000 | 100 to 1000
N#Cc1c(NC(=O)Cc2ccc(S(N)(=O)=O)cc2)sc2c1CCN(CC1CCCCC1)C2 [Example 92, N-(3-cyano-6-(cyclohexylmethyl)-4,5,6,7-tetrahydrothieno[2,3-c]pyridin-2-yl)-2-(4-sulfamoylphenyl) acetamide] | 100 to 1000 | 100 to 1000 | < 100 | < 100
N#Cc1c(NC(=O)Cc2ccc3c(c2)CCS3(=O)=O)sc2c1CN(Cc1cccc(F)c1)CC2 [Example 33, N-(3-cyano-5-(3-fluorobenzyl)-4,5,6,7-tetrahydrothieno[3,2-c]pyridin-2-yl)-2-(1,1-dioxido-2,3-dihydrobenzo[b]thiophen-5-yl)acetamide] | < 100 | 100 to 1000 | < 100 | 100 to 1000
CC1(C)Cc2sc(NC(=O)Cc3ccccc3)c(C#N)c2CN1CC1CCCCC1 [Example 73, N-(3-cyano-5-(cyclohexylmethyl)-6,6-dimethyl-4,5,6,7-tetrahydrothieno[3,2-c]pyridin-2-yl)-2-phenylacetamide] | 100 to 1000 | 100 to 1000 | 100 to 1000 | 100 to 1000
N#Cc1c(NC(=O)Cc2ccc(S(N)(=O)=O)cc2)sc2c1CCN(Cc1ccc(F)cc1)C2 [Example 101, N-(3-cyano-6-(4-fluorobenzyl)-4,5,6,7-tetrahydrothieno[2,3-c]pyridin-2-yl)-2-(4-sulfamoylphenyl)acetamide] | 100 to 1000 | 100 to 1000 | < 100 | 100 to 1000
CC1Cc2sc(NC(=O)Cc3ccc(S(=O)(=O)NCC4CCCCC4)cc3)c(C#N)c2CN1CC1CCCCC1 (stereo not shown) [Example 63, N-(3-cyano-5-(cyclohexylmethyl)-6-methyl-4,5,6,7-tetrahydrothieno[3,2-c]pyridin-2-yl)-2-(4-(N-(cyclohexylmethyl)sulfamoyl)phenyl)acetamide] | 100 to 1000 | > 1000 | 100 to 1000 | 100 to 1000
CC1Cc2sc(NC(=O)Cc3ccc(S(N)(=O)=O)cc3)c(C#N)c2CN1CC1CCCC1 (stereo not shown) [Example 59, N-(3-cyano-5-(cyclopentylmethyl)-6-methyl-4,5,6,7-tetrahydrothieno[3,2-c]pyridin-2-yl)-2-(4-sulfamoylphenyl)acetamide hydrochloride] | 100 to 1000 | > 1000 | 100 to 1000 | 100 to 1000
CS(=O)(=O)c1ccc(CC(=O)Nc2sc3c(c2C#N)CN(Cc2cccc(F)c2)CC3)cc1C#N [Example 27, 2-(3-cyano-4-(methylsulfonyl)phenyl)-N-(3-cyano-5-(3-fluorobenzyl)-4,5,6,7-tetrahydrothieno[3,2-c]pyridin-2-yl)acetamide] | < 100 | 100 to 1000 | < 100 | < 100
CC1(C)Cc2sc(NC(=O)Cc3ccc4c(c3)C(CN)CS4(=O)=O)c(C#N)c2CN1CC1CCCCC1 (stereo not shown) [Example 74, 2-(3-(aminomethyl)-1,1-dioxido-2,3-dihydrobenzo[b]thiophen-5-yl)-N-(3-cyano-5-(cyclohexylmethyl)-6,6-dimethyl-4,5,6,7-tetrahydrothieno[3,2-c]pyridin-2-yl)acetamide] | 100 to 1000 | 100 to 1000 | 100 to 1000 | 100 to 1000
Cc1cccc(CN2CCc3c(sc(NC(=O)Cc4ccc(S(C)(=O)=O)cc4)c3C#N)C2)c1 [Example 104, N-(3-cyano-6-(3-methylbenzyl)-4,5,6,7-tetrahydrothieno[2,3-c]pyridin-2-yl)-2-(4-(methylsulfonyl)phenyl)acetamide] | 100 to 1000 | > 1000 | < 100 | 100 to 1000
N#Cc1c(NC(=O)Cc2ccc3c(c2)CNS3(=O)=O)sc2c1CN(CC1CC(F)(F)C1)CC2 [Example 52, N-(3-cyano-5-((3,3-difluorocyclobutyl)methyl)-4,5,6,7-tetrahydrothieno[3,2-c]pyridin-2-yl)-2-(1,1-dioxido-2,3-dihydrobenzo[d]isothiazol-5-yl)acetamide] | 100 to 1000 | > 1000 | 100 to 1000 | 100 to 1000
COCCOc1cc(CC(=O)Nc2sc3c(c2C#N)CN(Cc2cccc(F)c2)C(C)C3)ccc1S(N)(=O)=O (stereo not shown) [Example 86, N-(3-cyano-5-(3-fluorobenzyl)-6-methyl-4,5,6,7-tetrahydrothieno[3,2-c]pyridin-2-yl)-2-(3-(2-methoxyethoxy)-4-sulfamoylphenyl)acetamide] | < 100 | 100 to 1000 | < 100 | < 100
